Test results: patent US9540325B2, “N1-cyclic amine-N5-substituted phenyl biguanide derivatives, methods of preparing the same and pharmaceutical composition comprising the same” (Immunomet Therapeutics, Inc., priority 2011, dated 2017)

Experiments:
AMPKα = experiment: Measurement of AMPK activation effect (AMPKα Thr172 phosphorylation immunoassay) in MCF7 cells; format: cell-based, human; conditions: 24 hours; for AMPK activation effect at 10 μM (%) / AMPK activation effect at 50 μM (%): relative to untreated cells; for AMPK activation effect AC150: concentration at which AMPK activation reached 150%
Method: MCF7 cells derived from human breast cancer cells (commercially available from the Korean Cell Line Bank) were used, and the AMPK activation effect of the biguanide derivative was confirmed using an AMPKα immunoassay kit (Invitrogen, Catalog No. KHO0651).
MCF7 cells were cultured in a DMEM medium supplemented with 10% fetal bovine serum. Thereafter, the cultured MCF7 cells were put into a 6-well plate with approximately 5×10^5 cells per well and cultured in an incubator supplied with 5% CO2. Culture media were treated with the derivatives synthesized in the examples at contents of 5, 10 and 50 μM, and then cultured for 24 hours. Metformin hydrochloride was used as the control, and the culture media were treated with 0.05, 0.5, 1, 2, 5 and 10 mM metformin hydrochloride, and then tested in the same manner as described in the derivatives synthesized in the examples. Subsequently, the cells were lysed according to a method presented in the operation manual of the AMPKα immunoassay kit, and 20 μg of a cell lysate was then yielded through protein assay. Thereafter, the AMPK activation effect was obtained by determining the degree of phosphorylation of 172nd threonine residue (Thr172) of the AMPKα from the cell lysate according to the method presented in the operation manual of the AMPKα immunoassay kit. […] A curve graph showing AMPK activation according to the concentration of the treated compounds was plotted based on the obtained AMPKα activation results, the concentration (activation concentration 150, AC150) value of the compound whose AMPK activation reached 150% was calculated using a GraphPad Prism 5.0 program, and the degrees of AMPK activation were obtained when concentrations of the treated biguanide derivatives were 10 μM and 50 μM and the metformin hydrochloride was 50 μM

HCT116 cells = experiment: Measurement of effect of inhibiting cancer cell proliferation (MTT); format: cell-based, human; conditions: Homo sapiens; for inhibition at 100 µM: HCT-116, 100 μM, 48 hours, read-out: Cell Growth Inhibition (%) at 100 μM; for GI50: HCT-116, 48 h
Description: HCT116 cells derived from human colorectal cancer (commercially available from the Korean Cell Line Bank) were used, and the effect of inhibiting cancer cell proliferation of the biguanide derivative was confirmed by measuring the concentration value (cell growth inhibition concentration, GIC50) at which cell growth was inhibited by 50% using a 3-(4,5-dimethylthiazol-2-yl)-2,5-diphenyltetrazolium bromide (MTT) reagent.
First, HCT116 cells were put on a 96-well plate and cultured in a DMEM medium containing 10% fetal bovine serum for 16 hours so that the cellcount in each well was approximately 5,000. Subsequently, to obtain the GIC50 value of each compound, culture media were treated with 100 μM, 25 μM, 6.25 μM, 1.56 μM or 0.39 μM of the compound, and then cultured for 48 hours. Metformin hydrochloride was used as the control, and the culture media were treated with 25, 12.5, 2.5, 0.5, 0.1 mM metformin hydrochloride, and then tested in the same manner as described in the derivatives synthesized in the examples. In order to determine whether the cells survived after treatment with the compounds, MTT was added to the culture media which were then cultured for another 3 hours. Formed formazane crystals were dissolved using dimethyl sulfoxide (DMSO), and the absorbance of the resulting solution was measured at 560 nm. After the 48-hour culture, […] was indicated as cell viability (%) according to each treated concentration. A cell viability curve graph was plotted and the concentration (GIC50) value of the compound at which the growth was inhibited by 50% was calculated to confirm the inhibition effect of cancer cell proliferation. Also, the cell growth viability (%) when the concentration of the treated biguanide derivative and the metformin hydrochloride as the control were 100 μM was shown.

[1] = Solubility in water of hydrochloride and acetate salts; format: physicochemical; conditions: room temperature
Method: The solubilities in water of the hydrochlorides prepared in Examples 26, 27, 32, 33, 48, 49, 53 and 54, and the solubilities in water of the acetates prepared in Examples 70 to 77, were compared.
The experimental conditions and methods are described, as follows.
1) 1 ml of distilled water is added to a container including 5 mg of salt at room temperature.
2) The resulting mixture is stirred for 10 minutes, and then kept at room temperature for 1 hour.
3) Undissolved residual salt is recovered and weighed.
4) The ratio of the amount of the recovered salt and the amount of the dissolved salt is calculated.
5) Operations 1) to 4) are repeatedly performed with increasing amount (i.e., 10, 15, 20, 25 and 30 mg) of salt.
The experimental procedures were performed for each of the hydrochlorides of Examples 26, 27, 32, 33, 48, 49, 53 and 54 and the acetates of Examples 70 to 77. The comparative solubilities obtained using the hydrochlorides of Examples 26, 27, 32, 33, 48, 49, 53 and 54 and the acetates of Examples 70 to 77 are listed in the following Table 1.

[2] = content 5 mg/1 ml distilled water
[3] = content 10 mg/1 ml distilled water

GI50 (HCT116 cells) | melting point | Solubility in water (%), acetate salt [1, 2] | Solubility in water (%), acetate salt [1, 3] | SMILES | AMPK activation effect at 10 μM (%) (AMPKα) | AMPK activation effect AC150 (AMPKα) | inhibition at 100 µM (HCT116 cells) | AMPK activation effect at 50 μM (%) (AMPKα)
1.9 µM | 251 to 252 °C |  |  | Cl.N=C(NC(=N)N1CCCCC1)Nc1ccc(Cl)c(OC(F)(F)F)c1 [Example 51, N1-piperidine-N5-(4-chloro-3-trifluoromethoxy)phenyl biguanide hydrochloride] | 160% | 7.8 µM | 96.3% | 
19.8 µM | 260 to 261 °C |  |  | Cl.N=C(NC(=N)N1CCC1)Nc1ccc(OC(F)(F)F)c(F)c1 [Example 52, N1-azetidine-N5-(3-fluoro-4-trifluoromethoxy)phenyl biguanide hydrochloride] | 265% | 3.3 µM | 101% | 740%
7.3 µM | 254 to 255 °C |  |  | Cl.N=C(NC(=N)N1CCC1)Nc1ccc(OC(F)(F)F)c(Cl)c1 [Example 55, N1-azetidine-N5-(3-chloro-4-trifluoromethoxy)phenyl biguanide hydrochloride] | 342% | 2.6 µM | 101% | 
2.6 µM | 261 to 262 °C |  |  | Cl.N=C(NC(=N)N1CCCCC1)Nc1ccc(OC(F)(F)F)c(Cl)c1 [Example 57, N1-piperidine-N5-(3-chloro-4-trifluoromethoxy)phenyl biguanide hydrochloride] | 345% | 3.2 µM | 96.3% | 
6.4 µM | 267 to 269 °C |  |  | Cl.N=C(NC(=N)N1CCCCC1)Nc1ccc(Cl)c(Cl)c1 [Example 64, N1-piperidine-N5-(3,4-dichloro)phenyl biguanide hydrochloride] | 442% | 0.7 µM | 101% | 
3.6 µM | 208 to 209 °C |  |  | Cl.N=C(NC(=N)N1CCCCC1)Nc1cc(Cl)cc(OC(F)(F)F)c1 [Example 65, N1-piperidine-N5-(3-chloro-5-trifluoromethoxy)phenyl biguanide hydrochloride] |  | 5.0 µM | 97.3% | 
 |  | 100% | 50% | N=C(NC(=N)N1CCCCC1)Nc1ccc(OC(F)(F)F)c(F)c1 [Example 77, N1-piperidine-N5-(3-fluoro-4-trifluoromethoxy)phenyl biguanide acetate] |  |  |  | 

Further lines, the compound ahead of its results:

SMILES | GI50 (HCT116 cells) | melting point | Solubility in water (%), acetate salt [1, 2] | Solubility in water (%), acetate salt [1, 3] | AMPK activation effect at 10 μM (%) (AMPKα) | AMPK activation effect AC150 (AMPKα) | inhibition at 100 µM (HCT116 cells) | AMPK activation effect at 50 μM (%) (AMPKα)
Cl.N=C(NC(=N)N1CCCCC1)Nc1ccc(F)cc1F [Example 58, N1-piperidine-N5-(2,4-difluoro)phenyl biguanide hydrochloride] | > 100 µM | 256 to 257 °C |  |  | 131% | 16.5 µM | 37.4% | 265%
Cl.N=C(NC(=N)N1CCCCC1)Nc1ccc(F)c(F)c1 [Example 59, N1-piperidine-N5-(3,4-difluoro)phenyl biguanide hydrochloride] | 28.1 µM | 257 to 258 °C |  |  | 269% | 3.6 µM | 97.8% | 1036%
Cl.N=C(NC(=N)N1CCCCC1)Nc1cc(F)cc(F)c1 [Example 60, N1-piperidine-N5-(3,5-difluoro)phenyl biguanide hydrochloride] | 48.2 µM | 243 to 244 °C |  |  | 144% | 8.2 µM | 97.6% | 576%
Cl.N=C(NC(=N)N1CCCCC1)Nc1cc(Cl)cc(Cl)c1 [Example 61, N1-piperidine-N5-(3,5-dichloro)phenyl biguanide hydrochloride] | 7.1 µM | 230 to 231 °C |  |  | 239% | 3.3 µM | 97.7% | 
Cl.N=C(NC(=N)N1CCCCC1)Nc1ccc(Cl)cc1Cl [Example 62, N1-piperidine-N5-(2,4-dichloro)phenyl biguanide hydrochloride] | 11.6 µM | 262 to 263 °C |  |  | 208% | 5.6 µM | 97.2% | 
Cl.N=C(NC(=N)N1CCCC1)Nc1ccc(Cl)c(Cl)c1 [Example 63, N1-pyrrolidine-N5-(3,4-dichloro)phenyl biguanide hydrochloride] | 8.7 µM | 282 to 283 °C |  |  | 261% | 6.2 µM | 97.6% | 
Cl.N=C(NC(=N)N1CCCC1)Nc1cc(Br)cc(OC(F)(F)F)c1 [Example 66, N1-pyrrolidine-N5-(3-bromo-5-trifluoromethoxy)phenyl biguanide hydrochloride] | 6.8 µM | 241 to 242 °C |  |  | 521% | 5.0 µM | 97.6% | 
Cl.N=C(NC(=N)N1CCCCC1)Nc1cc(Br)cc(OC(F)(F)F)c1 [Example 67, N1-piperidine-N5-(3-bromo-5-trifluoromethoxy)phenyl biguanide hydrochloride] | 2.9 µM | 205 to 207 °C |  |  |  | 5.0 µM | 97.1% | 
Cl.N=C(NC(=N)N1CCCCC1)Nc1cc(F)c(F)c(F)c1 [Example 68, N1-piperidine-N5-(3,4,5-trifluoro)phenyl biguanide hydrochloride] | 13.8 µM | 248 to 249 °C |  |  | 197% | 7.2 µM | 97.6% | 
Cl.N=C(NC(=N)N1CCCCC1)Nc1c(F)cc(F)cc1F [Example 69, N1-piperidine-N5-(2,4,6-trifluoro)phenyl biguanide hydrochloride] | > 100 µM | 243 to 244 °C |  |  | 131% | 42.0 µM | 21.5% | 156%
N=C(NC(=N)N1CCCCC1)Nc1ccc(C(F)(F)F)cc1 [Example 71, N1-piperidine-N5-(4-trifluoromethyl)phenyl biguanide acetate] |  |  | 100% | 50% | 313% | 2.3 µM |  | 
